From ChEMBL document CHEMBL3612021, “Structure-kinetics relationships of Capadenoson derivatives as adenosine A1 receptor agonists” (Eur J Med Chem, 2015) come the findings set out here.

This test addresses T1, Adenosine receptor A1 (Homo sapiens) (UniProt P30542).
T1 sequence (whole entry): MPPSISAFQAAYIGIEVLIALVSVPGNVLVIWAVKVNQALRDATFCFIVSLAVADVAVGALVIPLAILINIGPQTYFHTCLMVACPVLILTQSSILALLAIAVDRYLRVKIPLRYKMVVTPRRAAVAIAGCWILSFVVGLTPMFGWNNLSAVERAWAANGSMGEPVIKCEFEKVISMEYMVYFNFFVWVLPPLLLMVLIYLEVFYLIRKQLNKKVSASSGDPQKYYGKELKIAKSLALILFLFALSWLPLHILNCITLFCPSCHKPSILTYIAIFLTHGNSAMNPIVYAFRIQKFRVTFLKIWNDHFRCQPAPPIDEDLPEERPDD
The experiment in a line: Displacement of [3H]DPCPX from human adenosine A1 receptor expressed in CHO cell membranes at 1 uM by competition association assay.
On to `N#Cc1c(NCCCCc2ccccc2)nc(SCc2csc(-c3ccc(Cl)cc3)n2)nc1-c1ccc2c(c1)OCO2`, for which the inhibition is under 80%.
`COc1ccc(-c2c(C#N)c(N)nc(SCc3csc(-c4cccc(F)c4)n3)c2C#N)cc1` gave an inhibition of over 80%.
The value for `N#Cc1c(N)nc(SCc2csc(C3CCCCC3)n2)nc1-c1ccc2c(c1)OCO2` was over 80%; that for `N#Cc1c(N)nc(SCc2ccccc2[N+](=O)[O-])nc1-c1ccccc1` was over 80%.
For `COc1ccc(-c2nc(CSc3nc(N)c(C#N)c(-c4ccc(O)cc4)c3C#N)cs2)cc1` the value was over 80%.
For `CCNCCN1CCN(C(=O)CCc2cccc(CSc3nc(N)c(C#N)c(-c4ccc(NC(C)=O)cc4)n3)n2)CC1` the value was under 80%; for `N#Cc1c(N)nc(SCc2csc(-c3ccccc3Cl)n2)c(C#N)c1-c1ccc(O)cc1`, over 80%.
For the compound `N#Cc1c(N)nc(SCc2coc(-c3cccc(F)c3)n2)nc1-c1ccc2c(c1)OCO2`, the inhibition is over 80%.
For `N#Cc1c(N)nc(SCc2coc(-c3ccc(F)cc3)n2)nc1-c1ccc2c(c1)OCO2` the value was over 80%; for `N#Cc1c(N)nc(SCc2csc(-c3ccccc3Cl)n2)nc1-c1ccc2c(c1)OCO2`, over 80%.
The value for `CC(=O)Nc1ccc(-c2nc(SCc3cccc(CCC(=O)N4CCN(CCN(C(C)C)C(C)C)CC4)n3)nc(N)c2C#N)cc1` was under 80%; that for `N#Cc1c(N)nc(SCc2csc(-c3cccc(Cl)c3)n2)c(C#N)c1-c1ccc(O)cc1` was over 80%.
The compound `N#Cc1c(NCCCc2ccccc2)nc(SCc2csc(-c3ccc(Cl)cc3)n2)nc1-c1ccc2c(c1)OCO2` displayed an inhibition of under 80%.
For `N#Cc1c(N)nc(SCc2csc(N3CCOCC3)n2)c(C#N)c1-c1ccc(O)cc1` the value was over 80%; for `N#Cc1c(N)nc(SCc2csc(N3CCOCC3)n2)nc1-c1ccc2c(c1)OCO2`, over 80%; for `N#Cc1c(N)nc(SCc2csc(-c3ccc(F)cc3)n2)c(C#N)c1-c1ccc(O)cc1`, over 80%.
The value for `N#Cc1c(N)nc(SCc2coc(-c3ccc(F)cc3)n2)c(C#N)c1-c1ccc(O)cc1` was over 80%; that for `N#Cc1c(N)nc(SCc2csc(-c3ccccc3)n2)nc1-c1ccc2c(c1)OCO2` was over 80%; that for `COc1ccc(-c2c(C#N)c(N)nc(SCc3coc(-c4ccc(Cl)cc4)n3)c2C#N)cc1` was over 80%.
For `N#Cc1c(N)nc(SCc2csc(-c3ccccc3)n2)c(C#N)c1-c1ccc(O)cc1`, the inhibition was over 80%.
The compound `CC(=O)Nc1ccc(-c2nc(SCc3cccc(CCC(=O)N(C)CCN(C)C)n3)nc(N)c2C#N)cc1` returned an inhibition of under 80%.
Regarding `N#Cc1c(N)nc(SCc2csc(-c3ccc(Br)cc3)n2)c(C#N)c1-c1ccc(O)cc1`, the inhibition is over 80%.
The compound `N#Cc1c(NC2CCCC2)nc(SCc2csc(-c3ccc(Cl)cc3)n2)nc1-c1ccc2c(c1)OCO2` yielded an inhibition of under 80%.
The compound `N#Cc1c(N)nc(SCc2csc(-c3ccccc3F)n2)c(C#N)c1-c1ccc(O)cc1` yielded an inhibition of over 80%.
The compound `N#Cc1c(N)nc(SCc2coc(-c3ccc(Cl)cc3)n2)c(C#N)c1-c1ccc(O)cc1` had an inhibition of over 80%.
For `C#CCNc1nc(SCc2csc(-c3ccc(Cl)cc3)n2)cc(-c2ccc3c(c2)OCO3)c1C#N` the value was over 80%; for `N#Cc1c(N)nc(SCc2coc(-c3cccc(F)c3)n2)c(C#N)c1-c1ccc(O)cc1`, over 80%.
The value for `CCNc1nc(SCc2csc(-c3ccc(Cl)cc3)n2)cc(-c2ccc3c(c2)OCO3)c1C#N` was over 80%.
The value for `CC(=O)Nc1ccc(-c2nc(SCc3cccc(CCC(=O)N4CCN(CCCCN5CCC(C)CC5)CC4)n3)nc(N)c2C#N)cc1` was under 80%; that for `CC(C)CCNc1nc(SCc2csc(-c3ccc(Cl)cc3)n2)nc(-c2ccc3c(c2)OCO3)c1C#N` was under 80%.
Consider `N#Cc1c(N)nc(SCc2csc(-c3ccc(Br)cc3)n2)nc1-c1ccc2c(c1)OCO2`, for which the inhibition was over 80%.
Compound `CC(=O)Nc1ccc(-c2nc(SCc3csc(-c4ccc(Cl)cc4)n3)nc(N)c2C#N)cc1` had an inhibition of over 80%.

For orientation: inhibition means the percentage by which the read-out fell short of the control. Read a low inhibition as little suppression.
